Source: US12629348B2, “Method and composition for treating osteoarthritis” (Vireo Systems, Inc., priority 2013, dated 2026)

System: cultured canine chondrocytes
Experiment: TNFα release in cultured canine chondrocytes challenged with IL1b
Format: cell-based
Details: IL1b challenge; FIG. 4
Description: The study involved the use of cultured canine chondrocytes (i.e., cells within the joint that are activated during OA). The canine chondrocytes were subjected to an inflammatory challenge in the form of cytokine Interleukin 1 beta (“IL1b”). The canine chondrocytes were then treated with various anti-inflammatory compounds including Alpha-GEE; glucosamine; a TNFα receptor antagonist; and a NSAID (Rimadyl). Alpha-GEE was administered in concentrations ranging from 10 μM to 1000 μM. The resulting effects of the various treatments on both PGE2 release and TNFα release were examined.
A similar time dependent decrease in TNFα release was also observed in chondrocytes treated with Alpha-GEE, as shown in FIG. 4.

Row | Compound | effect on TNFα release in canine chondrocytes
1 | N[C@H]1C(O)O[C@H](CO)[C@@H](O)[C@@H]1O (some centres unmarked) [glucosamine] | no significant effect
2 | CC(C(=O)O)c1ccc2c(c1)[nH]c1ccc(Cl)cc12 (centres unmarked) [Rimadyl] | significant increase
